# In patent US12173018B2, “Penicillin-binding protein inhibitors” (priority 2018, dated 2024):
# Where a name gives a salt, the structure may show the parent alone. Read-outs that look alike come from different tables or passages of the source.
# Experiments:
# E. coli PBP3 = E. coli PBP3 (Escherichia coli (strain K12), UniProt P0AD68); assay: E. coli PBP3 Bocillin-FL fluorescence polarization competition binding assay
# Method in brief: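 Purified E. coli PBP (1.5 μM final) competed with inhibitor (0-1000 μM) for Bocillin-FL (0.1 μM final) in 50 mM Hepes pH 8.0, 300 mM NaCl, 5% glycerol. Fluorescence polarization (ex 490/em 520 nm) was read continuously for 60 min after Bocillin-FL addition. EC50 was the concentration that reduced Bocillin-FL binding by 50%.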
# E. coli PBP1b = E. coli PBP1b (Escherichia coli (strain K12), UniProt P02919); assay: Radioligand competition binding assay with 14C-labeled boronic acid probe, PBP1b
# Sequence of E. coli PBP1b (P02919 whole entry): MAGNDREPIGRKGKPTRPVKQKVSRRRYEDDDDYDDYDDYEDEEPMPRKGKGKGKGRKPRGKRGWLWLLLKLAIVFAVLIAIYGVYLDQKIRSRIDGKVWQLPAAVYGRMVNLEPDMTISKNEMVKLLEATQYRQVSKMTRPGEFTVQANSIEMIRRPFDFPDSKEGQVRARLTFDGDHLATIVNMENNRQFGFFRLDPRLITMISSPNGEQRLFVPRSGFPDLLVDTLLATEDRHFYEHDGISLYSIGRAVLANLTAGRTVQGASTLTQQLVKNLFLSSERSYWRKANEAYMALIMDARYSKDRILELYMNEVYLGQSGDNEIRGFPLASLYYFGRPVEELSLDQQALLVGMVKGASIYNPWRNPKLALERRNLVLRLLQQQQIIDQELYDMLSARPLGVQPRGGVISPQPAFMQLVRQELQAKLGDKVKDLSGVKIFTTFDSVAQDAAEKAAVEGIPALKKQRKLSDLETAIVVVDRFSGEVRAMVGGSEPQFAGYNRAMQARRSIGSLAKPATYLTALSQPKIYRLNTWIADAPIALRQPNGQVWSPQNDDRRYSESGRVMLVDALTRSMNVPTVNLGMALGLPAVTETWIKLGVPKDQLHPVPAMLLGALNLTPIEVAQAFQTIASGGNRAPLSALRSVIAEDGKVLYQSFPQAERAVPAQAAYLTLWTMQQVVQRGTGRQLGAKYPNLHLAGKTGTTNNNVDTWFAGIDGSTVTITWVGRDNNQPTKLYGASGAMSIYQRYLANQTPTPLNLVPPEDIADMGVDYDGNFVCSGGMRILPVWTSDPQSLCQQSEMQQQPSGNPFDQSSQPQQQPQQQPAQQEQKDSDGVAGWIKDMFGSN
# Description: To determine the ability of boronic acid-based test PBP inhibitors to bind Penicillin Binding Proteins (PBPs), a radio-labelled boronic acid PBP inhibitor
# [drawing 751] was used in competition binding assays to determine boronic acid PBP inhibitor binding to PBP1a or PBP1b from Escherichia coli. PBP1a and PBP1b were purified as described previously (Bertsche, U.; et al., J. Biol. Chem. 2005, 280 (45), 38096-38101; Born, P.; et al., J. Biol. Chem. 2006. 281 (37), 26985-26993). To establish assay conditions for competition binding, an enzyme titration/saturation binding experiment was performed. Saturation binding was performed in a buffer comprised of 20 mM Tris (pH 7.5), 500 mM NaCl and 0.1% (v/v) TritonX-100, with PBP1a/PBP1b at a final concentration of 0.1 μM and Compound A at final concentrations ranging from 0-100 μM. Mixtures were incubated for 60 minutes, then applied to Zeba Spin Desalting columns or plates (ThermoFisher Scientific) and centrifuged at 1000-1500×g for 2 minutes. The flow through, containing PBP bound with Compound A, was recovered and 100 μL mixed with 5 mL of UltimaGold liquid scintillation cocktail (Perkin Elmer), and the radioactivity counted using a Beckman Coulter LS 6500 Multipurpose scintillation counter. PBP binding of Compound A approached saturation at 20 μM of ^14C-labeled probe. The competition binding assay was validated using the beta-lactam ampicillin, with Compound A at a final concentration of 20 μM, PBP1a/PBP1b at a final concentration of 0.1 μM. PBP1a/PBP1b was incubated with ampicillin in a 96-well microplate for 60 minutes, then Compound A was added and the mixtures incubated for an additional 60 minutes. The mixtures were then applied to Zeba Spin desalting plates and centrifuged at 1000×g for 2 minutes. The flow through was recovered and 100 μl mixed with 5 ml of UltimaGold liquid scintillation cocktail and the radioactivity counted. […] Binding assays with boronic acid PBP inhibitors were performed in an identical fashion. The potency of boronic acid PBP inhibitors was reported as the EC50 value.
# E. coli ATCC 25922 = assay: Broth microdilution MIC, E. coli ATCC 25922; type: cell-based; conditions: Escherichia coli, ATCC25922; E. coli ATCC 25922, broth microdilution; read-out: MIC E. coli 25922
# Method in brief: (§1)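 Broth microdilution MICs followed CLSI methods in cation-supplemented Mueller-Hinton broth, with 2-fold serial compound dilutions. Log-phase cultures grown 3–5 h were added to a starting inoculum of 5×10^5 CFU/mL and incubated 16–20 h at 37 °C. The MIC was read visually as the lowest concentration with no growth.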
# E. coli AG100 = assay: Broth microdilution MIC, E. coli AG100 (wild-type parent); type: cell-based; conditions: Escherichia coli; wild-type parent E. coli AG100, broth microdilution; read-out: MIC E. coli AG100
# Method in brief: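 Broth microdilution in cation-supplemented Mueller-Hinton broth, 2-fold serial compound dilutions, inoculum 5×10^5 CFU/mL from 3-5 h log culture.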
# E. coli 901C = assay: microbe, parasite or virus in culture; type: cell-based; conditions: Escherichia coli; hyper-permeable E. coli 901C, broth microdilution; read-out: MIC E. coli 901C
# Method in brief: as §1
# E. coli AG100A = assay: microbe, parasite or virus in culture; type: cell-based; conditions: Escherichia coli, read-out: MIC E. coli AG100A
# Method in brief: as §1
# E. coli D22 = assay: microbe, parasite or virus in culture; type: cell-based; conditions: Escherichia coli; hyper-permeable E. coli D22, broth microdilution; read-out: MIC E. coli D22
# Method in brief: as §1
# K. pneumoniae SI-117 = assay: microbe, parasite or virus in culture; type: cell-based; conditions: Klebsiella pneumoniae, SI117, read-out: MIC K. pneumoniae SI-117
# Method in brief: as §1
# K. pneumoniae UMM = assay: microbe, parasite or virus in culture; type: cell-based; conditions: Klebsiella pneumoniae; K. pneumoniae UMM producing SHV-5 and KPC-2; read-out: MIC K. pneumoniae UMM
# Method in brief: as §1
# K. pneumoniae 848844 = assay: microbe, parasite or virus in culture; type: cell-based, Klebsiella pneumoniae; conditions: Klebsiella pneumoniae; K. pneumoniae 848844 producing SHV-11 and KPC-2; read-out: MIC K. pneumoniae 848844
# Method in brief: as §1
# [1] = test system: engineered strain of Escherichia coli harboring CTX-M15; assay: microbe, parasite or virus in culture; type: cell-based; conditions: Escherichia coli, read-out: Microbiological Activity (MIC in mg/L), E. coli DH5α/pLBII-CTX-M15, engineered strain producing CTX-M15
# [2] = fluorescence polarization competition binding with Bocillin-FL, read-out: E. coli K12 PBP3 Potency
# Sequence of E. coli PBP3 (P0AD68 whole entry): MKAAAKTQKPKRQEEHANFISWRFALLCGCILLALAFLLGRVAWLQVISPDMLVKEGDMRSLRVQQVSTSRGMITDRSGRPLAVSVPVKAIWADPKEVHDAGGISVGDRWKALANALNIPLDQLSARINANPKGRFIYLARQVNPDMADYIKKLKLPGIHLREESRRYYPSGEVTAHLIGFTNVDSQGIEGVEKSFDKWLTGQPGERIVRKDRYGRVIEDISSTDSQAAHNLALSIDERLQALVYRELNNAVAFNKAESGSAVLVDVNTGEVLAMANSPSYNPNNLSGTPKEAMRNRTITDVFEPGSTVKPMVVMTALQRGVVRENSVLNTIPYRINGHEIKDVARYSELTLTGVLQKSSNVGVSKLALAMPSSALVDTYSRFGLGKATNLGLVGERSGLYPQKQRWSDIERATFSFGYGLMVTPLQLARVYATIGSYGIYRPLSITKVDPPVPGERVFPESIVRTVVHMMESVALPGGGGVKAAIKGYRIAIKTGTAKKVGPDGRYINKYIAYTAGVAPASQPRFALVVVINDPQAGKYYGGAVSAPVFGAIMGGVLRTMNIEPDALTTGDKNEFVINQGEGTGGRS
Structure (SMILES),EC50 (E. coli PBP3) [µM],EC50 (E. coli PBP1b) [µM],MIC (E. coli ATCC 25922) [µg/mL],MIC (E. coli AG100) [µg/mL],MIC (E. coli 901C) [µg/mL],MIC (E. coli AG100A) [µg/mL],MIC (E. coli D22) [µg/mL],MIC (K. pneumoniae SI-117) [µg/mL],MIC (K. pneumoniae UMM) [µg/mL],MIC (K. pneumoniae 848844) [µg/mL],MIC [1] [mg/L],EC50 (E. coli PBP3; [2]) [µM]
"CCN1CCN(C(=O)NC(C(=O)N[C@H]2Cc3cccc(C(=O)O)c3OB2O)c2cccnc2)C(=O)C1=O (stereo partly drawn) [Example 105, (3R)-3-(2-(4-ethyl-2,3-dioxopiperazine-1-carboxamido)-2-(pyridin-3-yl)acetamido)-2-hydroxy-3,4-dihydro-2H-benzo[e][1,2]oxaborinine-8-carboxylic acid]",30 to 500,> 100,32 to 64,32 to 64,< 0.25,2 to 4,8 to 16,> 128,32 to 64,> 128,32 to 64,
"CCN1CCN(C(=O)NC(C(=O)N[C@H]2Cc3cccc(C(=O)O)c3OB2O)C2CCN(CC(=O)O)CC2)C(=O)C1=O (stereo partly drawn) [Example 72, (3R)-3-(2-(1-(carboxymethyl)piperidin-4-yl)-2-(4-ethyl-2,3-dioxopiperazine-1-carboxamido)acetamido)-2-hydroxy-3,4-dihydro-2H-benzo[e][1,2]oxaborinine-8-carboxylic acid, trifluoroacetic acid salt]",30 to 500,< 10,,,,,,,,,128 to 256,
"CCN1CCN(C(=O)NC(C(=O)N[C@H]2Cc3cccc(C(=O)O)c3OB2O)c2ncccn2)C(=O)C1=O (stereo partly drawn) [Example 111, (3R)-3-(2-(4-ethyl-2,3-dioxopiperazine-1-carboxamido)-2-(pyrimidin-2-yl)acetamido)-2-hydroxy-3,4-dihydro-2H-benzo[e][1,2]oxaborinine-8-carboxylic acid]",30 to 500,> 100,32 to 64,32 to 64,0.5 to 1,2 to 4,8 to 16,> 128,32 to 64,> 128,32 to 64,
"CCN1CCN(C(=O)NC(C(=O)N[C@H]2Cc3cccc(C(=O)O)c3OB2O)C2CCN(S(N)(=O)=O)CC2)C(=O)C1=O (stereo partly drawn) [Example 77, (3R)-3-(2-(4-ethyl-2,3-dioxopiperazine-1-carboxamido)-2-(1-sulfamoylpiperidin-4-yl)acetamido)-2-hydroxy-3,4-dihydro-2H-benzo[e][1,2]oxaborinine-8-carboxylic acid]",30 to 500,< 10,,,,,,,,,128 to 256,
"CCN1CCN(C(=O)NC(C(=O)N[C@H]2Cc3cccc(C(=O)O)c3OB2O)c2ccc[n+](CC(=O)[O-])c2)C(=O)C1=O (stereo partly drawn) [Example 108, 2-(3-(2-(((R)-8-carboxy-2-hydroxy-3,4-dihydro-2H-benzo[e][1,2]oxaborinin-3-yl)amino)-1-(4-ethyl-2,3-dioxopiperazine-1-carboxamido)-2-oxoethyl)pyridin-1-ium-1-yl)acetate]",30 to 500,10 to 100,32 to 64,> 128,8 to 16,32 to 64,8 to 16,> 128,32 to 64,> 128,32 to 64,
"CCN1CCN(C(=O)NC(C(=O)N[C@H]2Cc3cccc(C(=O)O)c3OB2O)c2ccc(O)nc2Cl)C(=O)C1=O (stereo partly drawn) [Example 67, (3R)-3-(2-(2-chloro-6-hydroxypyridin-3-yl)-2-(4-ethyl-2,3-dioxopiperazine-1-carboxamido)acetamido)-2-hydroxy-3,4-dihydro-2H-benzo[e][1,2]oxaborinine-8-carboxylic acid]",30 to 500,10 to 100,,,,,,,,,128 to 256,
"CCN1CCN(C(=O)NC(C(=O)N[C@H]2Cc3cccc(C(=O)O)c3OB2O)c2ccc(O)cc2Cl)C(=O)C1=O (stereo partly drawn) [Example 88, (3R)-3-(2-(2-chloro-4-hydroxyphenyl)-2-(4-ethyl-2,3-dioxopiperazine-1-carboxamido)acetamido)-2-hydroxy-3,4-dihydro-2H-benzo[e][1,2]oxaborinine-8-carboxylic acid]",,< 10,,,,,,,,,128 to 256,< 30
"CCN1CCN(C(=O)NC(C(=O)N[C@H]2Cc3cccc(C(=O)O)c3OB2O)c2ccc(CCN)cc2)C(=O)C1=O (stereo partly drawn) [Example 64, (3R)-3-(2-(4-(2-aminoethyl)phenyl)-2-(4-ethyl-2,3-dioxopiperazine-1-carboxamido)acetamido)-2-hydroxy-3,4-dihydro-2H-benzo[e][1,2]oxaborinine-8-carboxylic acid]",,10 to 100,,,,,,,,,128 to 256,> 500
"CCN1CCN(C(=O)NC(CNS(N)(=O)=O)C(=O)N[C@H]2Cc3cccc(C(=O)O)c3OB2O)C(=O)C1=O (stereo partly drawn) [Example 68, (3R)-3-(2-(4-ethyl-2,3-dioxopiperazine-1-carboxamido)-3-(sulfamoylamino)propanamido)-2-hydroxy-3,4-dihydro-2H-benzo[e][1,2]oxaborinine-8-carboxylic acid]",,< 10,,,,,,,,,32 to 64,> 500
"CCN1CCN(C(=O)N[C@@H](CNS(C)(=O)=O)C(=O)N[C@H]2Cc3cccc(C(=O)O)c3OB2O)C(=O)C1=O [Example 84, (R)-3-((S)-2-(4-ethyl-2,3-dioxopiperazine-1-carboxamido)-3-(methylsulfonamido)propanamido)-2-hydroxy-3,4-dihydro-2H-benzo[e][1,2]oxaborinine-8-carboxylic acid]",30 to 500,< 10,,,,,,,,,128 to 256,
"CCN1CCN(C(=O)N[C@H](C(=O)N[C@H]2Cc3cccc(C(=O)O)c3OB2O)C2(CO)CC2)C(=O)C1=O [Example 63, (R)-3-((S)-2-(4-ethyl-2,3-dioxopiperazine-1-carboxamido)-2-(1-(hydroxymethyl)cyclopropyl)acetamido)-2-hydroxy-3,4-dihydro-2H-benzo[e][1,2]oxaborinine-8-carboxylic acid]",,< 10,,,,,,,,,128 to 256,> 500
"CCN1CCN(C(=O)N[C@H](CNCC(=O)O)C(=O)N[C@H]2Cc3cccc(C(=O)O)c3OB2O)C(=O)C1=O [Example 73, (R)-3-((R)-3-((carboxymethyl)amino)-2-(4-ethyl-2,3-dioxopiperazine-1-carbox-amido)propanamido)-2-hydroxy-3,4-dihydro-2H-benzo[e][1,2]oxaborinine-8-carboxylic acid, trifluoroacetic acid salt]",,> 100,,,,,,,,,128 to 256,> 500
"CCN1CCN(C(=O)NC(CNC(C)=O)C(=O)N[C@H]2Cc3cccc(C(=O)O)c3OB2O)C(=O)C1=O (stereo partly drawn) [Example 69, (3R)-3-(3-acetamido-2-(4-ethyl-2,3-dioxopiperazine-1-carboxamido)propanamido)-2-hydroxy-3,4-dihydro-2H-benzo[e][1,2]oxaborinine-8-carboxylic acid]",,< 10,,,,,,,,,128 to 256,> 500
